In US11883407B2, “Medicament for the treatment of chronic cough” (Shionogi & Co., Ltd., priority 2018, dated 2024):
pIC50: −log10 of the molar value.

Target: T1, human P2X2/3 receptor (Homo sapiens, UniProt P56373+Q9UBL9)
T1 sequence (Q9UBL9 1-471): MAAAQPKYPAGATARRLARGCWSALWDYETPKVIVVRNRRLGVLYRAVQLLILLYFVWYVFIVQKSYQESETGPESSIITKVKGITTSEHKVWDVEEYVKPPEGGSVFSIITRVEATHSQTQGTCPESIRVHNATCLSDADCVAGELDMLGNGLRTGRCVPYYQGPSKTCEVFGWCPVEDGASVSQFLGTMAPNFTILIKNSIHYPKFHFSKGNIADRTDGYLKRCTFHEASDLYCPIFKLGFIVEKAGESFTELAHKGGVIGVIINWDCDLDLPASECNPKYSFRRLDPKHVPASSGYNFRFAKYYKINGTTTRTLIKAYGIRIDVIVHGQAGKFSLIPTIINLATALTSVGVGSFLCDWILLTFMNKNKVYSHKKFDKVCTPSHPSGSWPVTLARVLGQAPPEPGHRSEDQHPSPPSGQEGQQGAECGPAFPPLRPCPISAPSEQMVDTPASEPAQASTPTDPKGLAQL
T1 sequence (P56373 1-397): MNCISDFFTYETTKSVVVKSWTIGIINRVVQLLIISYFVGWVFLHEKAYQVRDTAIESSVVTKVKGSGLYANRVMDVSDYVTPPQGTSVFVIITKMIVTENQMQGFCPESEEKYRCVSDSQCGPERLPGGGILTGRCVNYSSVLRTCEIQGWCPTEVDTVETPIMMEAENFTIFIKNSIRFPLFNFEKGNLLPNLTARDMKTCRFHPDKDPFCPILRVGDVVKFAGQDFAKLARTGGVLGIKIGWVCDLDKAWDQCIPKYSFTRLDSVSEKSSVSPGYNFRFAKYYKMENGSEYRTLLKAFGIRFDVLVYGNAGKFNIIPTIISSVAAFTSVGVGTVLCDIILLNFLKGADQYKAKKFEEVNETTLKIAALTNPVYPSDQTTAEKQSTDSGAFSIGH
Assay: Evaluation of human P2X2/3 receptor inhibitory activity (Fluo-3 fluorescence, C6BU-1 cells, α,β-methylene ATP 6 μM)

SMILES: C[C@@H](Cn1c(=O)[nH]/c(=N\c2ccc(Oc3ccccn3)cc2)n(Cc2ccc(Cl)cc2)c1=O)C(=O)O [compound represented by Formula (I), (2S)-3-(3-[(4-Chlorophenyl)methyl]-2,6-dioxo-4-{[4-(pyridin-2-yloxy)phenyl]amino}-3,6-dihydro-1,3,5-triazin-1(2H)-yl)-2-methyl-propanoic acid]
- pIC50: 5.96
